Measured values published in ChEMBL document CHEMBL3414465, “Discovery of novel P1 groups for coagulation factor VIIa inhibition using fragment-based screening” (J Med Chem, 2015).

Legend:
[1] = target: Coagulation factor VII/tissue factor (Homo sapiens, UniProt P08709); assay: Inhibition of human soluble tissue factor/factor VIIa expressed in Origami B (DE3) using D-Ile-Pro-Arg-pNA as substrate after 30 mins by spectrophotometric analysis
[2] = Permeability of the compound after 4 hrs by PAMPA; assay type: ADME; conditions: read-out: permeability
Plasma = assay: Anticoagulant activity in factor VII-deficient human plasma assessed as concentration required to prolong clotting time by two-fold; assay type: functional

Coagulation factor VII/tissue factor, sequence (P08709 61-212 limits assumed): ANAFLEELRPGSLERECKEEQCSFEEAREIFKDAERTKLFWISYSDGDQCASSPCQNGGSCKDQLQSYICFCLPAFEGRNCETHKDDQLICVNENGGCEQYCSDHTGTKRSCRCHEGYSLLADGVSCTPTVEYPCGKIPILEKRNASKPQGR
Coagulation factor VII/tissue factor, sequence (P08709 213-466 limits assumed): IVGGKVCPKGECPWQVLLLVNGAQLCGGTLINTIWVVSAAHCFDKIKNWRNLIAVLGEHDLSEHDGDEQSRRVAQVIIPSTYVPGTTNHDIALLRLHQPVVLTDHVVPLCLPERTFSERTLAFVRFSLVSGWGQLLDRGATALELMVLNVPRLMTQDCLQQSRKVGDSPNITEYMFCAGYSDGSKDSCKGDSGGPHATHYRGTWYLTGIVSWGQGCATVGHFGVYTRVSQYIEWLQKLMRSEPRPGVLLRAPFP
Coagulation factor VII/tissue factor, sequence (P13726 33-295 partner limits assumed): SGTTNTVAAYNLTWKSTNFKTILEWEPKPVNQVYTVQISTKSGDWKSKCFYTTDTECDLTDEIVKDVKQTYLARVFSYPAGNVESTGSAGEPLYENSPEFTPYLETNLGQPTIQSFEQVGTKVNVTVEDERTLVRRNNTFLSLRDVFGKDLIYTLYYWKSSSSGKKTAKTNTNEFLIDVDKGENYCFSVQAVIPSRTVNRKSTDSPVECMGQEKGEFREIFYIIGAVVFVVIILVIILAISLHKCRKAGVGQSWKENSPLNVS

SMILES | Ki [1] | Papp at 4 h [2] | 2PT (Plasma)
Clc1ccc2[nH]nnc2c1 | 8.7 mM |  | 
COc1cc(Cl)ccc1O | 16 mM |  | 
COC(=O)Nc1ccc(S(=O)(=O)C(C)C)c([C@H]2CCCN2C(=O)[C@H](Nc2ccc3c(c2)C(=O)NCC3)c2cc(OC)c(OC)cc2F)c1 | 0.00013 mM | 1.8 ×10⁻⁶ cm/s | 160 µM
N=C(N)c1ccccc1 [BENZAMIDINE] | 0.24 mM |  | 
OCc1ccc(Cl)cc1Cl [DICHLOROBENZYL ALCOHOL] | 13 mM |  | 

The next lines start with results.

Ki [1] | Papp at 4 h [2] | SMILES | 2PT (Plasma)
16 mM |  | CC(O)c1cccc2ccccc12 (centres undefined) | 
13 mM |  | COc1cc(Br)ccc1O | 
13 mM |  | COC(=O)c1cccc2[nH]ccc12 | 
5.7 mM |  | O=C(O)c1c[nH]c2ccc(Cl)cc12 | 
4.3 mM |  | Clc1ccc2[nH]ccc2c1 | 
3.5 mM |  | O=C(O)c1cc2cc(Cl)ccc2[nH]1 [5-CHLOROINDOLE-2-CARBOXYLIC ACID] | 
8 mM |  | NC(=O)c1cccnc1 [NIACINAMIDE] | 
